Assay results from US20120184517A1, “TREATMENT OF DISEASES WITH ALTERED SMOOTH MUSCLE CONTRACTILITY” (priority 2009, published 2012).
Values after ≈ are worked out from the molar mass of the structure shown. “Also recorded” adds a separate entry of the source.

Experiments:
[1] = biological target: T1, recombinant BK (mSlo1) (Mus musculus, UniProt Q08460); test: Cell-free outside-out/inside-out patch single channel recordings from HEK cells; format: biochemical, murine
T1 construct: expressed in transfected cells
Method: Ca^2+ was maintained at 0 (virtual; actual <20 nM) through dialysis using a patch pipette.

[2] = biological target: T2, BKCa channel α (mSlo) and β1 subunits (Mus musculus, UniProt Q08460); test: Whole cell recording of HEK cells co-expressing α and β1 subunits; format: cell-based; settings: HEK293 cells expressing both mSlo and β1 subunit
T2 construct: expressed in transfected cells; host or cells: HEK293
Method: (§1) Current was monitored with a ramp protocol; holding potential −60 mV, with ramp from −80 mV to +150 mV over 500 ms. Extracellular application of NS-1619 (10 μM) increased current as previously described (Olesen, et al., Selective activation of Ca^2+-dependent K^+ channels by novel benzimidazolone. Eur. J. Pharmacol., 1994. 251(1):53-9). […] Analysis was performed using tail analysis with normalization as previously described (Xia, et al., Multiple regulatory sites in large-conductance calcium-activated potassium channels. Nature, 2002. 418(6900):880-4). […] Identification of the BKCa channel was determined by conductance and inhibition by iberiotoxin and TEA. […] Murine femoral arterial rings were isolated and placed in a wire myograph. […] The figures shown are representative of 4 similar experiments. Error bars are standard error of the mean (SEM). Asterisk (*) indicates p<0.001.

[3] = test system: murine femoral arterial rings; format: cell-based
Method: as §1, with “ms.” for “ms. Extracellular application of NS-1619 (10 μM) increased current as previously described (Olesen, et al., Selective activation of Ca^2+-dependent K^+ channels by novel benzimidazolone. Eur. J. Pharmacol., 1994. 251(1):53-9).”

[4] = test system: OVA-sensitized mice; test: OVA-asthma model, single i.v. dose before airway resistance measurement; format: in vivo
Method: Groups of mice received an I.P. injection of OVA/Alum complex on days 0 and 7 and on alternate days 14-22, a 20 minute aerosol challenge of either PBS or 2% (w/v) OVA in PBS, using an ultrasonic nebulizer (FIG. 22A).

[5] = test system: HDM-exposed mice; test: House dust mite (HDM) sensitized asthma model
Method: House dust mite (HDM) is one of the most common aeroallergens and is implicated in allergy and asthma symptoms in ˜10% of the population (Johnson et al., “Continuous exposure to house dust mite elicits chronic airway inflammation and structural remodeling.” Am J Respir Crit Care Med 169:378-385 (2004)). Exposure to HDM extract elicits a severe and persistent eosinophilic airway inflammation. Mice were exposed to purified HDM extract (Greer Laboratories, Lenoir, N.C.) intranasally (25 μg of protein in 10 μl saline) for 5 days/week for 3 weeks as previously described (Id.). […] Changes in pressure, flow, and volume were recorded, and airway resistance was calculated from peak values after each challenge using a Buxco forced maneuvers system and restrained whole body plethysmography (rWBP; PLY3011 chamber, Buxco (BUXCO Electronics Inc., Troy, N.Y.)).

[6] = test system: other PKC isozymes; settings: cited from earlier work
[7] = biological target: protein kinase A (PKA) (Homo sapiens, UniProt P17612); settings: cited from earlier work
[8] = biological target: casein kinase II (Homo sapiens, UniProt P68400); settings: cited from earlier work
[9] = biological target: PKCα (Homo sapiens, UniProt P17252); settings: rottlerin 20 μM, 0.1 mM ATP, phosphatidylserine; cited from earlier work
[10] = biological target: c-Jun N-terminal kinase 1 α1 (JNK1 α1) (Homo sapiens, UniProt P45983); settings: 20 μM; cited from earlier work
[11] = biological target: mitogen- and stress-activated protein kinase 1 (MSK-1) (Homo sapiens, UniProt O75582); settings: 20 μM; cited from earlier work
[12] = test system: CD4+ and CD8+ human T lymphocyte; settings: dose-dependent; cited from earlier work
[13] = test system: canine subarachnoid hemorrhage model; settings: 5 μM injected into the cistera magna; cited from earlier work
[14] = biological target: glutamate-aspartate transporter (GLAST) (Homo sapiens, UniProt P43003); settings: cited from earlier work
[15] = cited from earlier work
[16] = test system: rats; settings: 10-20 mg/kg/day×6 days; cited from earlier work
[17] = test system: guinea pigs; settings: 10-20 mg/kg/day×6 days; cited from earlier work

T1 sequence (Q08460 whole entry): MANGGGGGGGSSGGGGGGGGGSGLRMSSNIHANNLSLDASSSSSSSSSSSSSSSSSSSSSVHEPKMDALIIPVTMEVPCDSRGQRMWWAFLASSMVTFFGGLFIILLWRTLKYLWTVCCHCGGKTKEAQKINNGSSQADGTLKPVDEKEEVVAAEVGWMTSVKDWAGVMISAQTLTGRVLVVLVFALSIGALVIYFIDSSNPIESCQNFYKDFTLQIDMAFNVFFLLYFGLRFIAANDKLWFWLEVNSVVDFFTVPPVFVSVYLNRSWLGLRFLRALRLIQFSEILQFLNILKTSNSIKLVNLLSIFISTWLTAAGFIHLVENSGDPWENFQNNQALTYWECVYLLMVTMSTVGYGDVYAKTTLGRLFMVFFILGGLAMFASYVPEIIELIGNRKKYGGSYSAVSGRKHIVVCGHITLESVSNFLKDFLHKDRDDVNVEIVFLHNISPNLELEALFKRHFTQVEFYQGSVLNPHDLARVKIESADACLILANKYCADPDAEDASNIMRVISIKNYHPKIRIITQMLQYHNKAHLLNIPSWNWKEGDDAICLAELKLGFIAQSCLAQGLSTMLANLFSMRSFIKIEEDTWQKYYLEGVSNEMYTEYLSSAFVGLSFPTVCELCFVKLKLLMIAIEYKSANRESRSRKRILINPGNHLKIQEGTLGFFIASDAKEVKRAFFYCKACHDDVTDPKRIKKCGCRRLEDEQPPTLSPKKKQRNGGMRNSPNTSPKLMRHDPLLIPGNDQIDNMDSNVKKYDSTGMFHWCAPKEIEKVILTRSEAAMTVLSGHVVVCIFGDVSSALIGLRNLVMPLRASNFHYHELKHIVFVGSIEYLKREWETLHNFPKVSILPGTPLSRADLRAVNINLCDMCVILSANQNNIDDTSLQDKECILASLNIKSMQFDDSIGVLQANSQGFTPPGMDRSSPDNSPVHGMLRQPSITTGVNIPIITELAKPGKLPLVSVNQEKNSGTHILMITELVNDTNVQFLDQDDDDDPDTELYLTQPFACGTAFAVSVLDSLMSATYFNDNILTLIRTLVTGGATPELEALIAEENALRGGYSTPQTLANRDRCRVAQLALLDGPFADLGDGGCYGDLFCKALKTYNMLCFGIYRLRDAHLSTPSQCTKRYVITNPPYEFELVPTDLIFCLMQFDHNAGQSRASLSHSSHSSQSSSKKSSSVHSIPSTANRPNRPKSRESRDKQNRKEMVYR
Chain of glutamate-aspartate transporter (GLAST) (P43003 whole entry, species assumed): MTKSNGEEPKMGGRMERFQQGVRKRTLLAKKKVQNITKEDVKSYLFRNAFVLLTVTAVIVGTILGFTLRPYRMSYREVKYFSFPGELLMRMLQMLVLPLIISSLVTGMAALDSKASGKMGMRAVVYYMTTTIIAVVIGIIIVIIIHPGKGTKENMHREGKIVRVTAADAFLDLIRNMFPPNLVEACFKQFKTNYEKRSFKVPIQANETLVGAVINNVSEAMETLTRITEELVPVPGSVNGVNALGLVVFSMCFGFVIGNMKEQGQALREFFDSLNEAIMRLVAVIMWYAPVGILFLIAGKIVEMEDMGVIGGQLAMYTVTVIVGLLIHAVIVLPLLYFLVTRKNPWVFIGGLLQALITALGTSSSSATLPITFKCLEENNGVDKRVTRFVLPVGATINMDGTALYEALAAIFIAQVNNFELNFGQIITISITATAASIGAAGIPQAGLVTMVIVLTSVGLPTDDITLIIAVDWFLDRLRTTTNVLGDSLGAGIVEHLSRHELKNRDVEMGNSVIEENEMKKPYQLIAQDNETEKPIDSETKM
Chain of mitogen- and stress-activated protein kinase 1 (MSK-1) (O75582 whole entry, species assumed): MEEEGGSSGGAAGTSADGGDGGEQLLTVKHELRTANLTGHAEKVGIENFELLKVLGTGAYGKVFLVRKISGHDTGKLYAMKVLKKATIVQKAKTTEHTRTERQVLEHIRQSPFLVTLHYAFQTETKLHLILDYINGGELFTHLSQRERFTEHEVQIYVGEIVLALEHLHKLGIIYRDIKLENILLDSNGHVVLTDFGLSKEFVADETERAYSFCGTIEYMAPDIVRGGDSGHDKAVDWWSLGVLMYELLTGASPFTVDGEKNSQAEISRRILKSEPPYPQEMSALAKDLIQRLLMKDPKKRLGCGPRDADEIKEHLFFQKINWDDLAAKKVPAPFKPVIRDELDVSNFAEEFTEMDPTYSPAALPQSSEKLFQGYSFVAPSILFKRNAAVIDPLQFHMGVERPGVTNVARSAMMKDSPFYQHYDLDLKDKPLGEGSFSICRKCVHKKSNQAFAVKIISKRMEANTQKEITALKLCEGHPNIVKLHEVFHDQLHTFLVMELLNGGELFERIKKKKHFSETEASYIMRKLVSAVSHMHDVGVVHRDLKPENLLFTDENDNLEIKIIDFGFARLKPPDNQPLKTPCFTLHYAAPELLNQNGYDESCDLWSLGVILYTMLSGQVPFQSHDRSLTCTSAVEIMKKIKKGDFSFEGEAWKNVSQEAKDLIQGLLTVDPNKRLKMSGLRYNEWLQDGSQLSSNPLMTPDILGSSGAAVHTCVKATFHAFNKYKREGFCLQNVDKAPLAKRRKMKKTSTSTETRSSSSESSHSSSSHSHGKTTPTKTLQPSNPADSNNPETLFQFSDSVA
Chain of c-Jun N-terminal kinase 1 α1 (JNK1 α1) (P45983 1-384 isoform P45983-2, species assumed): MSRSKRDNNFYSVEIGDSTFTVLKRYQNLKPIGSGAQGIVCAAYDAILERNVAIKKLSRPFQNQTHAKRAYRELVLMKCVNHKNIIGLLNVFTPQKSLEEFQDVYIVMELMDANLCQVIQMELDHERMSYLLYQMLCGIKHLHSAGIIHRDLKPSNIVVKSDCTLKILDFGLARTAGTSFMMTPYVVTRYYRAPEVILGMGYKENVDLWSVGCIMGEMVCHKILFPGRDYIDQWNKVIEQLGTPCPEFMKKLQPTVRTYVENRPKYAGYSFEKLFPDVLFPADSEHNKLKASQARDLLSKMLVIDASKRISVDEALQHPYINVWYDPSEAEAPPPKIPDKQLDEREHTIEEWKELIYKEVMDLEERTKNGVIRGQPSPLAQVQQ
Chain of casein kinase II (P68400 whole entry): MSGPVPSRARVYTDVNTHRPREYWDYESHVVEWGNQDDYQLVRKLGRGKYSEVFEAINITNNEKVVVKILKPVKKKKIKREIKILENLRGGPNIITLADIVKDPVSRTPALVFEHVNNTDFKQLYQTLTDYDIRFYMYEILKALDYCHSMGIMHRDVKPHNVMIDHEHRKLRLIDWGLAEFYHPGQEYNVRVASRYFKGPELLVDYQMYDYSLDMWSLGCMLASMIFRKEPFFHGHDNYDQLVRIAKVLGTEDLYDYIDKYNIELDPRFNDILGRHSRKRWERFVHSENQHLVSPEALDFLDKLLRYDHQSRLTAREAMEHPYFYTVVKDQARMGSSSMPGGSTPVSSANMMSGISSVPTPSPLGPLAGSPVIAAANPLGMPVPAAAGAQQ
T2 sequence (Q08460 whole entry): as the sequence (Q08460 whole entry) above

In the case of CC(=O)c1c(O)c(C)c(O)c(Cc2c(O)c3c(c(C(=O)/C=C/c4ccccc4)c2O)OC(C)(C)C=C3)c1O [rottlerin, 5,7-dihydroxy-2,2-dimethyl-6-(2,4,6-trihydroxy-3-methyl-5-acetylbenzyl)-8-cinnamoyl-I,2-chromene], the channel open probability ([1]; 0.5 μM rottlerin, outside-out patches from HEK cells, absence of ATP) is reported as “significant increase”, the “experiments in which activation was found” value ([1]; rottlerin 0.5 μM bath application, outside-out patch, +30 mV, n=18) is reported as 100% and the channel conductance ([1]; rottlerin 0.5 μM, outside-out, 0 Ca2+) is reported as “does not significantly change”. The channel activation [2] was “activated the channel”, the “PE induced constriction of the vessel” value ([3]; rottlerin 0.5 μM (FIG. 7D legend)) was “significantly inhibited” and the “effect on phenylephrine mediated contraction” value ([3]; rottlerin 1 μM) was “no significant effect”. The “reduction of phenylephrine mediated contraction” value ([3]; rottlerin 4 μM) was “more than 50%”, the “β-agonist mediated relaxation of the airway” value ([4]; Rottlerin (5 μg/g) in combination with Isoproterenol (2.5 μg/g), tail vein) was “increased β-agonist mediated relaxation of the airway” and the “time to reduction of AHR” value ([4]; single I.V. administration) was at most 5 min. The “airway resistance (RL)” value ([4]; single dose 5 μg/g I.V. 5 minutes before measurement, OVA-sensitized mice) was “significant decrease in their RL; also recorded: significantly reduced airway resistance”, the “adverse effect, mortality, morbidity” value ([5]; 5 μg/g intraperitoneal every other day) was “no significant adverse effect” and the “cellular infiltrate in the peribronchial and perivascular regions” value ([5]; HDM-exposed animals) was “significant reduction”. For the same compound, the airway resistance ([5]; HDM-sensitized mice, methacholine 25-50 mg/ml) was “marked decrease in their airway resistance”, the airway resistance ([5]; PBS-sensitized animals) was “no effect” and the IC50 [6] was 30 to 100 µM. For the same compound, the IC50 [7] was 30 to 100 µM, the IC50 [8] was 30 to 100 µM and the “effect on PKCα activity” value [9] was “virtually no effect”. For the same compound, the inhibition [10] was 51%, the inhibition [11] was 62% and the T lymphocyte proliferation [12] was “inhibits”. For the same compound, the cerebral vasospasm [13] was “inhibited the initial phase of cerebral vasospasm”, the “capacity of GLAST” value [14] was “decrease the capacity” and the “solubility in DMSO” value ([15]; DMSO) was 100 mM (≈ 51.7 mg/mL). For the same compound, the solubility in ethanol ([15]; ethanol) was 2 mM (≈ 1.03 mg/mL), the fertility rate [16] was “reduce the fertility rate” and the fertility rate [17] was “reduce the fertility rate”.
